Here are results for two molecules from US9381200B2, “Nitrogen containing compounds” (WOCKHARDT LIMITED, priority 2011, dated 2016).

Converted amounts (≈) assume the structure as drawn. Like-named read-outs stand apart in the source and are kept apart here.

Assay type in all cases: cell-based
One test relates to P. aeruginosa Ps 32. Put plainly: Antibacterial activity (MIC) against MDR Gram negative strains. The settings on record: Pseudomonas aeruginosa, PS32; Table 5; P. aeruginosa Ps 32; read-out: MIC. The method in brief: (§1)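 Overnight bacterial cultures, suitably diluted, were inoculated onto agar media containing doubling dilutions of test compound. Plates were incubated 16-20 hours at 35±2° C. in ambient air and scored for growth or no growth following CLSI recommendations. MIC is reported in mcg/ml.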

A further test relates to E. Coli H 484. Described as above. The settings on record: Escherichia coli; Table 4; E. Coli H 484, Class C ESBL, MDR; read-out: MIC. The method in brief:
as §1

In a further test the test system is E. Coli W 13352. The test is described as above. Particulars: Escherichia coli; Table 4; E. Coli W 13352, Class A ESBL, MDR; read-out: MIC. The method in brief: as §1
A further test has as its system K. penumoniae S 48. Described as above. The settings on record: Table 5; K. penumoniae S 48, Class B ESBL, MDR; read-out: MIC. The method in brief:
as §1

In another test the test system is E. Coli M 44. The test is described as above. The settings on record: Escherichia coli; Table 5; E. Coli M 44, Class B ESBL, MDR; read-out: MIC. In short, it runs like this:
as §1

Another test has as its system E. Coli W 13351. Described as above. Particulars: Escherichia coli; Table 4; E. Coli W 13351, Class A ESBL, MDR; read-out: MIC. The method in brief:
as §1

In a further test the test system is K penumoniae H 521. The description is as above. Particulars: Table 4; K penumoniae H 521, KPC ESBL, MDR; read-out: MIC. In short, it runs like this:
as §1

The subject of the next test is K penumoniae H 523. The description is as above. Particulars: Table 4; K penumoniae H 523, KPC ESBL, MDR; read-out: MIC. In short, it runs like this:
as §1

For another test, the system named is E. Coli B 89. Described as above. The settings on record: Escherichia coli; Table 4; E. Coli B 89, Class C ESBL, MDR; read-out: MIC. In short, it runs like this: as §1
The subject of the next test is E. Coli W 13353. The description is as above. The settings on record: Escherichia coli; Table 4; E. Coli W 13353, Class A ESBL, MDR; read-out: MIC. In short, it runs like this: as §1
The next test has as its system P. aeruginosa ATCC 27853. Described as above. The settings on record: Pseudomonas aeruginosa, ATCC27853; Table 5; P. aeruginosa ATCC 27853; read-out: MIC. In short, it runs like this:
as §1

The subject of another test is K penumoniae H 525. Described as above. Particulars: Table 4; K penumoniae H 525, KPC ESBL, MDR; read-out: MIC. In short, it runs like this: as §1
A further test relates to P. aeruginosa Ps 21. The test is described as above. Particulars: Pseudomonas aeruginosa, PS21; Table 5; P. aeruginosa Ps 21; read-out: MIC. In short, it runs like this: as §1
The subject of another test is E. Coli M 3. The description is as above. Particulars: Escherichia coli; Table 5; E. Coli M 3, Class B ESBL, MDR; read-out: MIC. In short, it runs like this:
as §1

A further test relates to E. coli M 50. The experiment in a line: Antibacterial activity (MIC), agar dilution per CLSI. Particulars: Escherichia coli, read-out: MIC. In short, it runs like this:
as §1
Background: In agar dilution the substance is mixed into plates at graded concentrations.

For test [1], the system named is K. pneumoniae ATCC 700603. Put plainly: Antibacterial activity of Ceftazidime in presence of compounds of the invention (MIC). Particulars: Klebsiella pneumoniae, ATCC700603; Table 6; K. pneumoniae ATCC 700603 (ESBL type: Class A); Ceftazidime alone or with compound at fixed 4 mcg/ml as named in the composition. Here is the method:
(§2) The biological activity of representative compounds according to the invention against various bacterial strains was investigated. In a typical study, overnight grown bacterial cultures were diluted appropriately and inoculated on the agar media containing doubling dilutions of the test compounds. Observation for growth or no growth was performed after 16-20 hours of incubation at 35±2° C. in ambient air. The overall procedure was performed as per Clinical and Laboratory Standards Institute (CLSI) recommendations (Clinical and Laboratory Standards Institute (CLSI), Performance Standards for Antimicrobial Susceptibility Testing, 20th Informational Supplement, M 100-S20, Volume 30, No. 1, 2010).
(§3) The antibacterial activity of representative compounds according to the invention was also investigated in combination with at least one antibacterial agent using the above study protocol and the results are given Table 6.

In a further test the test system is P. vulgaris S-137B. The test is described as above. The settings on record: Proteus vulgaris, S137B; Table 6; P. vulgaris S-137B (ESBL type: Class C); Ceftazidime alone or with compound at fixed 4 mcg/ml as named in the composition. Here is the method:
as §2, §3

The next test has as its system E. coli NCTC 13351. Put plainly: Antibacterial activity (MIC), agar dilution per CLSI. The settings on record: Escherichia coli, NCTC13351, Table 3, E. coli NCTC 13351 expressing ESBL, 16-20 hours, 35±2° C., read-out: MIC. In short, it runs like this:
(§4)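 Agar dilution MIC per CLSI: overnight cultures diluted and inoculated onto agar containing doubling dilutions of compound. Growth/no growth read after 16-20 h at 35±2° C in ambient air. Strains express ESBL.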

A further test deals with E. coli 7 MP. The test is described as above. The settings on record: Escherichia coli, Table 3, E. coli 7 MP expressing ESBL, read-out: MIC. The method in brief:
as §4

Another test has as its system A. baumannii G-165. The experiment in a line: Antibacterial activity of sulbactam / Cefepime combinations with a compound of the invention (MIC). Particulars: Acinetobacter baumannii, G165; footnotes of Tables 7 and 8; A. baumannii G-165; substance used alone; read-out: Standalone MIC. Here is the method: as §2
For a further test, the system named is A. baumannii J-143. Described as above. The settings on record: Acinetobacter baumannii, J143; footnotes of Tables 7 and 8; A. baumannii J-143; substance used alone; read-out: Standalone MIC. How it is done: as §2
The subject of another test is A. baumannii S-334. The test is described as above. The settings on record: Acinetobacter baumannii, S334; footnotes of Tables 7 and 8; A. baumannii S-334; substance used alone; read-out: Standalone MIC. Here is the method: as §2
A further test concerns A. baumannii 1460648. Described as above. The settings on record: Acinetobacter baumannii; footnotes of Tables 7 and 8; A. baumannii 1460648; substance used alone; read-out: Standalone MIC. How it is done: as §2
Setting [2] is: M50, Table 4, E. Coli M 50, Class C ESBL, MDR.

For `CC(C)(O/N=C(\C(=O)N[C@@H]1C(=O)N2C(C(=O)[O-])=C(C[n+]3ccccc3)CS[C@H]12)c1csc(N)n1)C(=O)O` [Ceftazidime, reference compound], the MIC with P. aeruginosa Ps 32 was greater than 32 µg/mL; in the test on E. Coli H 484, greater than 32 µg/mL; with E. Coli W 13352, greater than 32 µg/mL; with K. penumoniae S 48, greater than 32 µg/mL; with E. Coli M 44, greater than 32 µg/mL; in the test on E. Coli W 13351, 32 µg/mL (≈ 58.5 µM). For the same molecule, the MIC was greater than 32 µg/mL with K penumoniae H 521; greater than 32 µg/mL in the test on K penumoniae H 523; greater than 32 µg/mL in the test with E. Coli B 89; 32 µg/mL (≈ 58.5 µM) in the test on E. Coli W 13353; 1 µg/mL (≈ 1.83 µM) in the test with P. aeruginosa ATCC 27853; greater than 32 µg/mL with K penumoniae H 525. Further, the MIC (in the test with P. aeruginosa Ps 21; with E. Coli M 3; with E. coli M 50 (setting [2]); in test [1]; in the test with P. vulgaris S-137B) was greater than 32 µg/mL in each case.

Regarding `O=C(NNC(=O)[C@@H]1CC[C@@H]2CN1C(=O)N2OS(=O)(=O)O)[C@@H]1CCNC1` [Example 3, trans-sulfuric acid mono-[2-(N′—[(R)-pyrrolidin-3-carbonyl]-hydrazinocarbonyl)-7-oxo-1,6-diaza-bicyclo[3.2.1]oct-6-yl]ester], the MIC amounted to 4 µg/mL (≈ 10.6 µM) with P. aeruginosa Ps 32; 0.5 µg/mL (≈ 1.32 µM) with E. Coli H 484; 0.5 µg/mL (≈ 1.32 µM) in the test with E. Coli W 13352; 0.5 µg/mL (≈ 1.32 µM) with K. penumoniae S 48; 0.12 µg/mL (≈ 0.318 µM) in the test with E. Coli M 44; 0.5 µg/mL (≈ 1.32 µM) with E. Coli W 13351. The MIC in the test with K penumoniae H 521 came out at 0.5 µg/mL (≈ 1.32 µM); in the test with K penumoniae H 523 it was 0.5 µg/mL (≈ 1.32 µM); in the test on E. Coli B 89, 0.25 µg/mL (≈ 0.662 µM); in the test with E. Coli W 13353, 0.25 µg/mL (≈ 0.662 µM); in the test on P. aeruginosa ATCC 27853, 2 µg/mL (≈ 5.3 µM); in the test on K penumoniae H 525, 0.5 µg/mL (≈ 1.32 µM). Moreover, the MIC with P. aeruginosa Ps 21 stood at 4 µg/mL (≈ 10.6 µM); in the test on E. Coli M 3 it was 0.5 µg/mL (≈ 1.32 µM); with E. coli M 50 (M50, Table 3, E. coli M 50 expressing ESBL, agar dilution), 0.25 µg/mL (≈ 0.662 µM); with E. coli M 50 (setting [2]) it was 0.5 µg/mL (≈ 1.32 µM); in the test with E. coli NCTC 13351 it was 0.25 µg/mL (≈ 0.662 µM); with E. coli 7 MP it was 1 µg/mL (≈ 2.65 µM). In addition, the MIC with A. baumannii G-165, with A. baumannii J-143, in the test with A. baumannii S-334 and with A. baumannii 1460648 was greater than 32 µg/mL each time.

For orientation: MIC means the smallest concentration in the dilution series that meets the test's criterion for growth inhibition.
